The subject of series [1] is P3 mouse cochlear explants. Put plainly: Cochlear explant cultures treated with cisplatin, outer hair cell counts. Conditions: for Protection at higher doses in explants treated with cisplatin: dose-response.
The conditions of series [2]: weekly dosing schedule, phase I study; cited from earlier work.
Series [3] concerns outer hair cells, 32-kHz region of the organ of Corti. Put plainly: Morphologic analysis and OHC counts of cochleae from cisplatin-treated mice. Type of series: in vivo, mouse.
The subject of series [4] is cisplatin-induced ototoxicity in adult FVB mice. Type of series: in vivo, mouse. The following applies: 50 μM transtympanic.
Series [5] shares this test system. Conditions: earlier study of the authors; cited from earlier work.
For series [6], the system named is adult FVB mice. As to the kind of experiment: Toxicity of compound alone delivered transtympanically. Conditions: 2, 10 or 50 μM, single transtympanic injection, 15 days after injection.
For series [7], the target named is Cdk2/Cyclin A (Homo sapiens, UniProt P24941). As to the kind of experiment: CDK2 inhibition assay. In kind it is biochemical.

Like-named read-outs stand apart in the source and are kept apart here.

Take `O=C(NC1CCNCC1)c1n[nH]cc1NC(=O)c1c(Cl)cccc1Cl` [AT7519, N-(4-piperidinyl)-4-(2,6-dichlorobenzoylamino)-1H-pyrazole-3-carboxamide]: the “Protection in cochlear explant cultures treated with cisplatin” value in series [1] (compound 25 nM, cisplatin 150 μM) is on record as “excellent protection”. Besides, the “Protection at higher doses in explants treated with cisplatin” value in series [1] was “loss of activity was observed at higher doses”.

As to `Cc1ncc(-c2ccnc(Nc3ccc(S(C)(=O)=O)cc3)n2)n1C(C)C` [AZD5438], the “Safety and tolerability in patients” value in series [2] was “safe and well tolerated”. The “OHC loss in the 32-kHz region” value in series [3] (50 μM transtympanic 1 h before and 24 h after cisplatin) was “virtually no OHC loss”. Besides, the “Overall protection against cisplatin-induced ototoxicity in mice” value (“Overall protection” below) in series [4] is “fully protective”.

Turning to `O=C1Cc2c([nH]c3ccc(Br)cc23)-c2ccccc2N1` [Kenpaullone], in series [5], the “Overall protection” value is on record as “complete protection”.

`O=C(N[C@H]1CC[C@H](O)CC1)c1n[nH]cc1NC(=O)c1c(F)cccc1F` [analog 7]: in series [3] (50 μM transtympanic 1 h before cisplatin), the “OHC loss in middle basal turn (32-kHz region) vs cisplatin alone” value was “Substantially less OHC loss”. The “Overall protection” value in series [4] was “some—but not complete—protection”. Moreover, the “Toxicity in the ears of mice in the absence of cisplatin” value in series [6] is listed as “nontoxic”. For the same compound, the “Protection against cisplatin toxicity in cochlear explants” value in series [1] (compound 150 nM, P3 mouse explants, OHC counts) is on record as “significant protection”. Moreover, the “Protection at higher doses in explants treated with cisplatin” value in series [1] is on record as “maintains the level of protection at higher doses”.

In series [7], `O=C(NC1CCN(C(=O)c2c(Cl)cccc2Cl)CC1)c1n[nH]cc1NC(=O)c1c(Cl)cccc1Cl` [analog 14] registered an IC50 of 0.76 µM.

As for AZD1080, in series [1] (read-out: Explant EC50, estimated EC50 based on 2–3 tested dose concentrations, cisplatin 150 μM), the EC50 was 15 µM.

Source of the values: paper PMC6443376 (Journal of medicinal chemistry, 2018).
